Data from PubChem BioAssay AID330 (DTP/NCI, 2004).
Several values for one entry are separate records, joined by “and”; a condition that tells them apart may be missing. Equal values may be shown once. Toxic doses and inconclusive results are not listed. Rule for the calls: active = survival T/C of 150% or more; inactive = T/C below 125% in these data.

System: P388 leukemia ip, CD2F1 mice, survival T/C
Assay: NCI In Vivo Anticancer Drug Screen. Data for tumor model P388 Leukemia (intraperitoneal) in CD2F1 (CDF1) mice
Settings: endpoint: median survival time, higher = longer survival
Procedure, shortened: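 Mice carrying the transplanted tumor received test compound or vehicle. Survival was recorded in each group, and the value is the treated-group measurement divided by that of the vehicle-treated control group.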

[1] = dose: 50.0 mg/kg/injection, schedule: Q01DX005 (ip), vehicle: Klucel (hydroxypropylcellulose) (HPC)
[2] = dose: 100.0 mg/kg/injection, schedule: Q01DX005 (ip), vehicle: Klucel (hydroxypropylcellulose) (HPC)
[3] = dose: 200.0 mg/kg/injection, schedule: Q01DX005 (ip), vehicle: Klucel (hydroxypropylcellulose) (HPC)
[4] = dose: 50.0 mg/kg/injection, schedule: Q01DX009 (ip), vehicle: saline with Tween-80
[5] = dose: 100.0 mg/kg/injection, schedule: Q01DX009 (ip), vehicle: saline with Tween-80
[6] = dose: 200.0 mg/kg/injection, schedule: Q01DX009 (ip), vehicle: saline with Tween-80
[7] = dose: 25.0 mg/kg/injection, schedule: Q01DX009 (ip), vehicle: saline with Tween-80
[8] = dose: 50.0 mg/kg/injection, schedule: Q01DX009 (ip), vehicle: saline
[9] = dose: 100.0 mg/kg/injection, schedule: Q01DX009 (ip), vehicle: saline
[10] = dose: 200.0 mg/kg/injection, schedule: Q01DX009 (ip), vehicle: saline
[11] = dose: 400.0 mg/kg/injection, schedule: Q01DX009 (ip), vehicle: saline with Tween-80
[12] = dose: 15.0 mg/kg/injection, schedule: Q01DX005 (ip), vehicle: saline with Tween-80
[13] = dose: 30.0 mg/kg/injection, schedule: Q01DX005 (ip), vehicle: saline with Tween-80
[14] = dose: 60.0 mg/kg/injection, schedule: Q01DX005 (ip), vehicle: saline with Tween-80
[15] = dose: 50.0 mg/kg/injection, schedule: Q01DX005 (ip), vehicle: saline with Tween-80
[16] = dose: 100.0 mg/kg/injection, schedule: Q01DX005 (ip), vehicle: saline with Tween-80
[17] = dose: 200.0 mg/kg/injection, schedule: Q01DX005 (ip), vehicle: saline with Tween-80
[18] = dose: 3.12 mg/kg/injection, schedule: Q01DX009 (ip), vehicle: Klucel (hydroxypropylcellulose) (HPC)
[19] = dose: 6.25 mg/kg/injection, schedule: Q01DX009 (ip), vehicle: Klucel (hydroxypropylcellulose) (HPC)
[20] = dose: 12.5 mg/kg/injection, schedule: Q01DX009 (ip), vehicle: Klucel (hydroxypropylcellulose) (HPC)
[21] = dose: 120.0 mg/kg/injection, schedule: Q01DX005 (ip), vehicle: saline with Tween-80
[22] = dose: 240.0 mg/kg/injection, schedule: Q01DX005 (ip), vehicle: saline with Tween-80
[23] = dose: 50.0 mg/kg/injection, schedule: Q01DX009 (ip), vehicle: Klucel (hydroxypropylcellulose) (HPC)
[24] = dose: 100.0 mg/kg/injection, schedule: Q01DX009 (ip), vehicle: Klucel (hydroxypropylcellulose) (HPC)
[25] = dose: 200.0 mg/kg/injection, schedule: Q01DX009 (ip), vehicle: Klucel (hydroxypropylcellulose) (HPC)
[26] = dose: 50.0 mg/kg/injection, schedule: Q01DX005 (ip), vehicle: saline
[27] = dose: 100.0 mg/kg/injection, schedule: Q01DX005 (ip), vehicle: saline

Measured: T/C

FC(F)(F)c1ccc2cc(C3(C4CCNCC4)CCCO3)c3ccc(C(F)(F)F)cc3c2c1 (configuration not stated)
inactive: dose: 12.5 mg/kg/injection, schedule: Q01DX009 (ip), vehicle: distilled water + Tween-80 104 % of control | dose: 25.0 mg/kg/injection, schedule: Q01DX009 (ip), vehicle: distilled water + Tween-80 95 % of control

O=C(/C=N/Nc1ccccc1)Nc1ccccc1C(=O)O
inactive: [1] 102 % of control | [2] 105 % of control | [3] 93 % of control

CN1CCC(CNc2ccccc2)CC1
inactive: dose: 7.5 mg/kg/injection, schedule: Q01DX005 (ip), vehicle: saline 98 % of control | dose: 15.0 mg/kg/injection, schedule: Q01DX005 (ip), vehicle: saline 98 % of control

COc1cc2c(=O)n3c4c(cccc4c2cc1OC)CCC3
inactive: dose: 25.0 mg/kg/injection, schedule: Q01DX009 (ip), vehicle: other 94 % of control | dose: 50.0 mg/kg/injection, schedule: Q01DX009 (ip), vehicle: other 90 % of control | dose: 100.0 mg/kg/injection, schedule: Q01DX009 (ip), vehicle: other 87 % of control | dose: 200.0 mg/kg/injection, schedule: Q01DX009 (ip), vehicle: other 92 % of control | dose: 400.0 mg/kg/injection, schedule: Q01DX009 (ip), vehicle: other 100 % of control

O=C(c1ccccc1)c1ccc(NC(=O)C(F)(F)F)cc1
inactive: [4] 88 % of control | [5] 86 % of control | [6] 99 % of control

ClC1CCCC[N-]1.ClC1CCCC[N-]1.[Cl][Pt+2][Cl] (configuration not stated)
inactive: dose: 12.5 mg/kg/injection, schedule: Q01DX009 (ip), vehicle: saline with Tween-80 109 % of control | [7] 103 % of control | [4] 101 % of control | [5] 97 % of control | [6] 99 % of control

C/C(=C\C(=O)c1ccccc1)N1CCN(c2ccc(F)cc2)CC1
inactive: [1] 102 % of control | [2] 105 % of control | [3] 96 % of control

O=C(O)C1CSC(c2ccc(O)cc2)N1 (configuration not stated)
inactive: [8] 87 % of control | [9] 88 % of control | [10] 90 % of control

COc1ccccc1NC(=S)Nc1ccccc1OC
inactive: [5] 100 % of control | dose: 100.0 mg/kg/injection, schedule: Q04DX003 (ip), vehicle: saline sonified 100 % of control | [6] 87 % of control | dose: 200.0 mg/kg/injection, schedule: Q04DX003 (ip), vehicle: saline sonified 100 % of control | [11] 91 % of control | dose: 400.0 mg/kg/injection, schedule: Q04DX003 (ip), vehicle: saline sonified 100 % of control

Cn1c(=O)oc2cc(NC(N)=O)c(Br)cc21
inactive: [1] 92 % of control | [2] 87 % of control

COc1ccc(/C=N/NC(=S)NC23CC4CC(CC(C4)C2)C3)cc1OC
inactive: [12] 93 % of control | [13] 89 % of control | [14] 89 % of control

C#CCCCC#C
inactive: [1] 98 % of control | [2] 98 % of control | [3] 104 % of control

COC(=O)C1C(C(=O)OC)C2N(c3ccccc3)C=NN2C1C(=O)c1ccccc1 (configuration not stated)
inactive: [15] 96 % of control | [16] 103 % of control | [17] 93 % of control

C[Si](OC(=O)N(CCCl)CCCl)(c1ccccc1)c1ccccc1
inactive: [18] 103 % of control | [19] 106 % of control | [20] 113 % of control

O=C(O)Cc1c(-c2noc(-c3ccccc3)c2CC(=O)O)noc1-c1ccccc1
inactive: [14] 99 % of control | [21] 103 % of control | [22] 108 % of control

CN1C(c2ccccc2)=C(C#N)C(=O)CC(c2cccs2)N1C (configuration not stated)
inactive: [14] 96 % of control | [21] 99 % of control | [22] 86 % of control

C/C(=N\NC(N)=S)c1ccccc1
inactive: [18] 106 % of control | [19] 111 % of control | [20] 114 % of control

c1cc2c3c(cccc3c1)C(C1Cc3cccc4cccc1c34)C2 (configuration not stated)
inactive: [23] 97 % of control | [24] 100 % of control | [25] 88 % of control

O=C(O)CCc1nc(-c2ccccc2)nc2c1CCc1ccccc1-2
inactive: dose: 100.0 mg/kg/injection, schedule: Q04DX002 (ip), vehicle: Klucel (hydroxypropylcellulose) (HPC) 92 % of control | dose: 200.0 mg/kg/injection, schedule: Q04DX002 (ip), vehicle: Klucel (hydroxypropylcellulose) (HPC) 97 % of control | dose: 400.0 mg/kg/injection, schedule: Q04DX002 (ip), vehicle: Klucel (hydroxypropylcellulose) (HPC) 98 % of control

Nc1nc(Cl)c2[nH]cnc2n1
inactive: [4] 108 % of control | dose: 50.0 mg/kg/injection, schedule: Q04DX003 (ip), vehicle: saline with Tween-80 95 % of control | [5] 99 % of control | dose: 100.0 mg/kg/injection, schedule: Q04DX003 (ip), vehicle: saline with Tween-80 100 % of control | dose: 200.0 mg/kg/injection, schedule: Q04DX003 (ip), vehicle: saline with Tween-80 100 % of control

COc1ccc2ncc(C)c(CO)c2c1
inactive: [15] 116 % of control | [16] 102 % of control | [17] 98 % of control

CCCOC(=O)C(F)C(Br)C(=O)OCCC (configuration not stated)
inactive: [7] 100 % of control and 107 % of control | [4] 105 % of control and 120 % of control | [5] 111 % of control and 118 % of control | [6] 123 % of control

Nc1ccc2c(SCCCCCCCCSc3c4ccccc4nc4cc(N)ccc34)c3ccccc3nc2c1
inactive: [14] 106 % of control | [21] 106 % of control

S=c1[nH]c2ccccc2n2cccc12
inactive: [23] 108 % of control | [24] 108 % of control | [25] 106 % of control

CC12CCC(C(Br)C1=O)C2(C)CBr (configuration not stated)
inactive: [15] 103 % of control | [16] 104 % of control | [17] 92 % of control

c1ncn(Cn2cncn2)n1
inactive: dose: 60.0 mg/kg/injection, schedule: Q01DX005 (ip), vehicle: Klucel (hydroxypropylcellulose) (HPC) 105 % of control | dose: 120.0 mg/kg/injection, schedule: Q01DX005 (ip), vehicle: Klucel (hydroxypropylcellulose) (HPC) 107 % of control | dose: 240.0 mg/kg/injection, schedule: Q01DX005 (ip), vehicle: Klucel (hydroxypropylcellulose) (HPC) 101 % of control

O=C(CCl)C(c1ccc([N+](=O)[O-])cc1)c1ccc([N+](=O)[O-])cc1
inactive: [5] 100 % of control | [6] 95 % of control | [11] 118 % of control

CCOC(=O)NOCOC
inactive: [8] 115 % of control | [9] 114 % of control | [10] 109 % of control

COC(=O)C1=C(C(=O)OC)P2(C)(C)OC(c3ccccc3)CN2C1(c1ccccc1)c1ccccc1 (configuration not stated)
inactive: [1] 98 % of control | [2] 100 % of control | [3] 91 % of control

COc1cc(CNc2cccc(F)c2)cc(OC)c1OC
inactive: [1] 100 % of control | [2] 110 % of control | [3] 89 % of control

CC(C)NC1(N(C)C)N=C(N(C)C)N=C(N(C)C)O1 (configuration not stated)
inactive: [26] 101 % of control | [27] 101 % of control

COC(=O)C1=C(C(=O)OC)C2(C)OC1c1ccccc12 (configuration not stated)
inactive: [12] 106 % of control | [13] 106 % of control | [14] 100 % of control and 102 % of control

C[n+]1cccc2c1-c1ccccc1C2=O
inactive: dose: 25.0 mg/kg/injection, schedule: Q01DX005 (ip), vehicle: Klucel (hydroxypropylcellulose) (HPC) 101 % of control | [1] 115 % of control | [2] 101 % of control | [3] 91 % of control

O=C1NC(=O)C2(CCCc3ccc([N+](=O)[O-])cc32)N1 (configuration not stated)
inactive: [4] 99 % of control | [5] 99 % of control | [6] 97 % of control

CCOCCOCCSCc1ccccn1
inactive: [1] 109 % of control | [2] 99 % of control | [3] 100 % of control

NC(=O)C[CH2][Sn]([Cl])([Cl])[CH2]CC(N)=O
inactive: [26] 98 % of control | [27] 98 % of control | dose: 200.0 mg/kg/injection, schedule: Q01DX005 (ip), vehicle: saline 105 % of control

CN1C(=O)c2ccc3c4ccc5c(=O)n6c7ccccc7nc6c6ccc(c7ccc(c2c37)C1=O)c4c56
inactive: [1] 102 % of control | [2] 105 % of control | [3] 97 % of control
